Measured values from ChEMBL document CHEMBL5029165, “Derivatives of montanine-type alkaloids and their implication for the treatment of Alzheimer's disease: Synthesis, biological activity and in silico study” (Bioorg Med Chem Lett, 2021).

How the values were obtained:
Cholinesterase [1] = molecular target: T1, Cholinesterase (Homo sapiens, UniProt P06276); assay: Inhibition of human BuChE using butyrylthiocholine chloride as substrate by Ellman's method
Cholinesterase [2] = molecular target: T1, Cholinesterase; assay: Inhibition of human BuChE at 100 uM using butyrylthiocholine chloride as substrate by Ellman's method
Acetylcholinesterase [3] = molecular target: T2, Acetylcholinesterase (Homo sapiens, UniProt P22303); assay: Inhibition of human AChE using acetylthiocholine as substrate by Ellman's method
Acetylcholinesterase [4] = molecular target: T2, Acetylcholinesterase; assay: Inhibition of human AChE at 100 uM using acetylthiocholine as substrate by Ellman's method
[5] = Selectivity index, ratio of IC50 for human AChE to IC50 for human BuChe
[6] = Selectivity index, ratio of IC50 for human BuChe to IC50 for human AChE

T2 sequence (P22303 whole entry): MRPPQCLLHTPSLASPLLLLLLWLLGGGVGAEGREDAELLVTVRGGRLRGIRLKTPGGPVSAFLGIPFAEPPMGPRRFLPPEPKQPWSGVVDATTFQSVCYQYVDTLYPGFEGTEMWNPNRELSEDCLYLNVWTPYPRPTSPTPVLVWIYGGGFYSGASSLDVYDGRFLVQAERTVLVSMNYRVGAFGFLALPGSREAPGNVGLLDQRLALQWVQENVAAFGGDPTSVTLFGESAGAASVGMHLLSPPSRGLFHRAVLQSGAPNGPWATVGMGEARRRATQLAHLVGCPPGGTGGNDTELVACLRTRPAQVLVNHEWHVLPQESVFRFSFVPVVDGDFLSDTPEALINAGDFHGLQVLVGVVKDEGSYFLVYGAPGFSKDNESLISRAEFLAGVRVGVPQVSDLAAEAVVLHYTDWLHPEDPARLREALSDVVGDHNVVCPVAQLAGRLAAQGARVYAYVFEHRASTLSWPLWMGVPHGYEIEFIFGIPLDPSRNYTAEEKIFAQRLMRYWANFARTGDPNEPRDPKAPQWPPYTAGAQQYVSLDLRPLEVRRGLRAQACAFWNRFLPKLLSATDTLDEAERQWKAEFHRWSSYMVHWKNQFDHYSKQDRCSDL
T1 sequence (P06276 whole entry): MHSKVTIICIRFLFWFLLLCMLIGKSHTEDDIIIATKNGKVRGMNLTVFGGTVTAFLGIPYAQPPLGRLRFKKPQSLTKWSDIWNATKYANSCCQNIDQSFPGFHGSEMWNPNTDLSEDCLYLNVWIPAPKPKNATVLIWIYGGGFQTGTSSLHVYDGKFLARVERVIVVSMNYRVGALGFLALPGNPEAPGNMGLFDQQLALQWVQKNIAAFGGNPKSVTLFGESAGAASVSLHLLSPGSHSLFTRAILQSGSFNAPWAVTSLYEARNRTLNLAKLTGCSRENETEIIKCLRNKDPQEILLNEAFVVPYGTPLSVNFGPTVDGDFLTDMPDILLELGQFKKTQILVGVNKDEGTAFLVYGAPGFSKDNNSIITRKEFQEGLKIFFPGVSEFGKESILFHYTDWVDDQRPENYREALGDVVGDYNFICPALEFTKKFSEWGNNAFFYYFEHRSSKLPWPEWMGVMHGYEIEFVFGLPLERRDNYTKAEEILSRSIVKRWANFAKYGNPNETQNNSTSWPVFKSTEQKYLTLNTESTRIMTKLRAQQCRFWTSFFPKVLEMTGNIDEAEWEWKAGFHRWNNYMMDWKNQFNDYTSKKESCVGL

SMILES	IC50 (Cholinesterase [1])	inhibition (Cholinesterase [2])	IC50 (Acetylcholinesterase [3])	inhibition (Acetylcholinesterase [4])	Selectivity Index [5]	Selectivity Index [6]
CO[C@H]1C[C@H]2C(=C[C@@H]1OC(=O)c1ccccc1[N+](=O)[O-])[C@H]1CN2Cc2cc3c(cc21)OCO3	> 100 µM	45.4%	> 100 µM	34.1%	–	–
O=C(O[C@H]1CN2Cc3cc4c(cc3[C@]13C=C[C@@H](O)C[C@H]23)OCO4)c1ccccc1Cl	5.6 µM	–	13 µM	–	–	–
CO[C@H]1C[C@H]2C(=C[C@@H]1OC(=O)c1ccoc1)[C@H]1CN2Cc2cc3c(cc21)OCO3	> 100 µM	30.2%	> 100 µM	6.8%	–	–
CO[C@H]1C=C2[C@H]3CN(Cc4cc5c(cc43)OCO5)[C@H]2C[C@@H]1OC(=O)c1cc([N+](=O)[O-])ccc1Cl	> 100 µM	40.1%	> 100 µM	1.8%	–	–
CO[C@H]1C[C@H]2C(=C[C@@H]1OC(=O)C1CCCCC1)[C@H]1CN2Cc2cc3c(cc21)OCO3	> 100 µM	20.8%	> 100 µM	1.2%	> 57.8	< 0.02
CO[C@H]1C=C2[C@H]3CN(Cc4cc5c(cc43)OCO5)[C@H]2C[C@@H]1OC(=O)c1ccc([N+](=O)[O-])cc1Cl	17 µM	69.8%	> 100 µM	2.3%	> 5.9	< 0.17
CO[C@H]1C[C@H]2C(=C[C@@H]1OC(=O)c1cccc(C)c1)[C@H]1CN2Cc2cc3c(cc21)OCO3	> 100 µM	12.9%	> 100 µM	18.2%	–	–
CO[C@H]1C[C@H]2C(=C[C@@H]1OC(=O)N1CCCCC1)[C@H]1CN2Cc2cc3c(cc21)OCO3	1.73 µM	97%	> 100 µM	8.8%	–	–
CO[C@H]1C[C@H]2C(=C[C@@H]1OC(=O)c1ccc(Cl)c([N+](=O)[O-])c1)[C@H]1CN2Cc2cc3c(cc21)OCO3	> 100 µM	26.5%	1.61 µM	83.7%	< 0.02	> 62.1
CO[C@H]1C[C@H]2C(=C[C@@H]1OC(=O)c1cccc([N+](=O)[O-])c1)[C@H]1CN2Cc2cc3c(cc21)OCO3	> 100 µM	18.1%	> 100 µM	55.3%	–	–
CO[C@H]1C=C2[C@H]3CN(Cc4cc5c(cc43)OCO5)[C@H]2C[C@@H]1OC(=O)N1CCCCC1	6.54 µM	88.2%	> 100 µM	10.9%	> 15.3	< 0.07
CO[C@H]1C[C@H]2C(=C[C@@H]1OC(=O)c1cccs1)[C@H]1CN2Cc2cc3c(cc21)OCO3	> 100 µM	49.7%	> 100 µM	29.4%	–	–
CO[C@H]1C[C@H]2C(=C[C@@H]1OC(=O)c1ccc([N+](=O)[O-])cc1Cl)[C@H]1CN2Cc2cc3c(cc21)OCO3	> 100 µM	27.1%	> 100 µM	48.6%	–	–
O=C(O[C@H]1CN2Cc3cc4c(cc3[C@]13C=C[C@@H](O)C[C@H]23)OCO4)c1cccc([N+](=O)[O-])c1	> 100 µM	–	4 µM	–	–	–
CO[C@H]1C[C@H]2C(=C[C@@H]1O)[C@H]1CN2Cc2cc3c(cc21)OCO3	> 100 µM	9.2%	> 100 µM	9.2%	–	–
CO[C@H]1C[C@H]2C(=C[C@@H]1OC(=O)c1cc([N+](=O)[O-])ccc1Cl)[C@H]1CN2Cc2cc3c(cc21)OCO3	> 100 µM	30%	3.18 µM	78.7%	< 0.03	> 31.4
CO[C@H]1C[C@H]2C(=C[C@@H]1OC(=O)c1cc(Br)cc([N+](=O)[O-])c1)[C@H]1CN2Cc2cc3c(cc21)OCO3	> 100 µM	31.7%	> 100 µM	28%	–	–
CO[C@H]1C[C@H]2C(=C[C@@H]1OCCN1CCCCC1)[C@H]1CN2Cc2cc3c(cc21)OCO3	> 100 µM	45.2%	> 100 µM	6.5%	–	–
CO[C@H]1C[C@H]2C(=C[C@@H]1OC(=O)c1ccc(C)cc1)[C@H]1CN2Cc2cc3c(cc21)OCO3	> 100 µM	12.9%	> 100 µM	12.4%	–	–

SMILES	IC50 (Cholinesterase [1])	inhibition (Cholinesterase [2])	IC50 (Acetylcholinesterase [3])	inhibition (Acetylcholinesterase [4])	Selectivity Index [5]	Selectivity Index [6]
CO[C@H]1C[C@H]2C(=C[C@@H]1OC(=O)c1cc([N+](=O)[O-])cc([N+](=O)[O-])c1)[C@H]1CN2Cc2cc3c(cc21)OCO3	> 100 µM	19.2%	13.1 µM	70.8%	< 0.13	> 7.66
COc1ccc(C(=O)O[C@H]2C=C3[C@H]4CN(Cc5cc6c(cc54)OCO6)[C@H]3C[C@@H]2OC)cc1	> 100 µM	15.5%	> 100 µM	12.5%	–	–
CO[C@H]1C[C@H]2C(=C[C@@H]1OC(=O)c1ccccc1)[C@H]1CN2Cc2cc3c(cc21)OCO3	> 100 µM	20.1%	> 100 µM	8.5%	–	–
CO[C@H]1C=C2[C@H]3C[N@@](Cc4cc5c(cc43)OCO5)[C@H]2C[C@@H]1O [MONTANINE]	> 100 µM	–	> 100 µM	–	–	–
COc1c2c(cc3c1OCO3)[C@]13C=C[C@H](OC)C[C@H]1N(C2)C[C@H]3OC(=O)c1cccc2ccccc12	0.1 µM	–	> 100 µM	–	–	–
CO[C@H]1C=C2[C@H]3CN(Cc4cc5c(cc43)OCO5)[C@H]2C[C@@H]1OC(=O)c1ccc(C)c([N+](=O)[O-])c1	> 100 µM	20.4%	> 100 µM	30.3%	–	–
CO[C@H]1C[C@H]2C(=C[C@@H]1OC(=O)c1ccc([N+](=O)[O-])cc1)[C@H]1CN2Cc2cc3c(cc21)OCO3	> 100 µM	26.2%	> 100 µM	48.1%	–	–
CO[C@H]1C=C2[C@H]3CN(Cc4cc5c(cc43)OCO5)[C@H]2C[C@@H]1OC(=O)c1ccc(Cl)c([N+](=O)[O-])c1	> 100 µM	13.8%	> 100 µM	4.8%	–	–
CO[C@H]1C[C@H]2C(=C[C@@H]1OC(=O)c1ccc(C)c([N+](=O)[O-])c1)[C@H]1CN2Cc2cc3c(cc21)OCO3	> 100 µM	6.8%	4.32 µM	81.5%	< 0.04	> 23.1
CO[C@H]1C[C@H]2C(=C[C@@H]1OC(=O)c1ccccc1C)[C@H]1CN2Cc2cc3c(cc21)OCO3	> 100 µM	30.2%	> 100 µM	29.7%	–	–
O=C(O[C@@H]1C=C[C@]23CCN(Cc4cc5c(cc42)OCO5)[C@H]3C1)c1ccccc1[N+](=O)[O-]	1.4 µM	–	60 µM	–	–	–
COc1cccc(C(=O)O[C@H]2C=C3[C@H]4CN(Cc5cc6c(cc54)OCO6)[C@H]3C[C@@H]2OC)c1	> 100 µM	20.3%	> 100 µM	19.3%	–	–
CO[C@H]1C=C2[C@H]3CN(Cc4cc5c(cc43)OCO5)[C@H]2C[C@@H]1O	–	8.4%	–	13.7%	–	–
Cc1ccccc1C(=O)O[C@@H]1C=C[C@]23CCN(Cc4cc5c(cc42)OCO5)[C@H]3C1	8 µM	–	> 100 µM	–	–	–
CO[C@H]1C[C@H]2C(=C[C@@H]1OC(=O)c1ccco1)[C@H]1CN2Cc2cc3c(cc21)OCO3	> 100 µM	26.9%	> 100 µM	15.1%	–	–
COc1ccccc1C(=O)O[C@H]1C=C2[C@H]3CN(Cc4cc5c(cc43)OCO5)[C@H]2C[C@@H]1OC	> 100 µM	30.1%	> 100 µM	15.6%	–	–
COc1ccccc1C(=O)O[C@H]1CN2Cc3cc4c(cc3[C@]13C=C[C@@H](O)C[C@H]23)OCO4	3.3 µM	–	90 µM	–	–	–
COc1ccc(C(=O)O[C@H]2C=C3[C@H]4CN(Cc5cc6c(cc54)OCO6)[C@H]3C[C@@H]2OC)cc1OC	> 100 µM	18.1%	> 100 µM	17.2%	–	–
